Results taken from ChEMBL document CHEMBL1201862, “PubChem BioAssay data set” (2004).
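Compound exposure: 48 hours, 5 concentrations, 96-well plates. GI50 is the concentration that inhibits growth by half.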 The source made the active and inactive calls. Rule as the data show it: active = GI50 up to about 1.1 µM and inactive = higher.

How the values were obtained:
Assay in all cases: growth of human tumour cells (NCI), 48 h
786-0 = tested on: 786-0
A549 = tested on: A549
EKVX = tested on: EKVX
HOP-62 = tested on: HOP-62
HT-29 = tested on: HT-29
IGROV-1 = tested on: IGROV-1
M14 = tested on: M14
MOLT-4 = tested on: MOLT-4
NCI-H23 = tested on: NCI-H23
OVCAR-8 = tested on: OVCAR-8
RXF 393 = tested on: RXF 393
SF-295 = tested on: SF-295
SF-539 = tested on: SF-539
SK-MEL-5 = tested on: SK-MEL-5
SN12C = tested on: SN12C
SR = tested on: SR
TK-10 = tested on: TK-10
U-251 = tested on: U-251
UACC-62 = tested on: UACC-62
MDA-MB-435 = tested on: MDA-MB-435

Measured: GI50

CNS(=O)(=O)NN(C)S(=O)(=O)c1ccc2ccccc2c1
inactive: 786-0 > 100 µM | A549 > 100 µM | EKVX > 100 µM | HOP-62 > 100 µM | HT-29 > 100 µM | IGROV-1 > 100 µM | M14 > 100 µM | MOLT-4 > 100 µM | NCI-H23 > 100 µM | OVCAR-8 > 100 µM | RXF 393 > 100 µM | SF-295 > 100 µM | SF-539 > 100 µM | SK-MEL-5 > 100 µM | SN12C > 100 µM | SR > 100 µM | TK-10 > 100 µM | U-251 > 100 µM | UACC-62 > 100 µM

C[C@]12CC[C@@H]3c4ccc(O)cc4CC[C@H]3[C@@H]1CC[C@@H]2OC(=O)CCc1ccccc1
inactive: 786-0 34 µM | A549 22.3 µM | EKVX 10.8 µM | HOP-62 22.1 µM | HT-29 19.6 µM | IGROV-1 20.8 µM | M14 17.6 µM | MDA-MB-435 13.1 µM | MOLT-4 17 µM | NCI-H23 17.7 µM | OVCAR-8 22.8 µM | RXF 393 16.4 µM | SF-295 19.3 µM | SK-MEL-5 17.1 µM | SN12C 22.9 µM | TK-10 18.5 µM | U-251 18.7 µM | UACC-62 13.9 µM

COc1nc(O)nc2c1C(c1ccc([N+](=O)[O-])cc1)c1c(OC)nc(O)nc1O2
inactive: 786-0 > 100 µM | A549 > 100 µM | EKVX > 100 µM | HOP-62 > 100 µM | HT-29 > 100 µM | IGROV-1 > 100 µM | M14 > 100 µM | MDA-MB-435 > 100 µM | MOLT-4 > 100 µM | NCI-H23 > 100 µM | OVCAR-8 > 100 µM | RXF 393 > 100 µM | SF-295 > 100 µM | SK-MEL-5 > 100 µM | SN12C > 100 µM | TK-10 > 100 µM | U-251 > 100 µM | UACC-62 > 100 µM

Nc1ccc(C(=O)/C=C/c2ccccc2O)cc1
inactive: 786-0 > 100 µM | A549 > 100 µM | EKVX > 100 µM | HOP-62 > 100 µM | HT-29 > 100 µM | IGROV-1 > 100 µM | M14 > 100 µM | MOLT-4 > 100 µM | NCI-H23 > 100 µM | OVCAR-8 > 100 µM | RXF 393 > 100 µM | SF-295 > 100 µM | SF-539 > 100 µM | SK-MEL-5 > 100 µM | SN12C > 100 µM | SR > 100 µM | TK-10 > 100 µM | U-251 > 100 µM | UACC-62 > 100 µM

Cc1[nH]c2ccccc2c1C1Cc2ccccc2N1C(=O)/C=C/C=C/c1ccccc1 (centres undefined)
inactive: 786-0 > 100 µM | A549 > 100 µM | EKVX > 100 µM | HOP-62 > 100 µM | HT-29 > 100 µM | IGROV-1 > 100 µM | M14 > 100 µM | MOLT-4 12.7 µM | NCI-H23 > 100 µM | OVCAR-8 > 100 µM | RXF 393 > 100 µM | SF-295 > 100 µM | SF-539 > 100 µM | SK-MEL-5 > 100 µM | SN12C > 100 µM | SR > 100 µM | TK-10 > 100 µM | U-251 > 100 µM | UACC-62 > 100 µM

O=C1C2Nc3ccccc3SC2C(=O)N1c1cccc([N+](=O)[O-])c1 (centres undefined)
inactive: 786-0 > 100 µM | A549 98.9 µM | EKVX > 100 µM | HOP-62 > 54.8 µM | HT-29 > 92.3 µM | IGROV-1 > 100 µM | M14 > 100 µM | MOLT-4 51.8 µM | NCI-H23 55.8 µM | OVCAR-8 > 64 µM | RXF 393 > 100 µM | SF-295 > 74.5 µM | SF-539 > 100 µM | SK-MEL-5 > 100 µM | SN12C > 86.9 µM | SR > 100 µM | TK-10 35.4 µM | U-251 > 100 µM | UACC-62 > 100 µM

CCOc1ccc(NC(=O)CC2SC(Nc3ccc(C)cc3)=NC2=O)cc1 (centres undefined)
inactive: 786-0 > 100 µM | A549 > 100 µM | EKVX > 100 µM | HOP-62 > 100 µM | HT-29 > 100 µM | IGROV-1 > 100 µM | M14 > 100 µM | MOLT-4 35.2 µM | NCI-H23 > 100 µM | OVCAR-8 > 100 µM | RXF 393 > 100 µM | SF-295 > 100 µM | SF-539 > 100 µM | SK-MEL-5 > 100 µM | SN12C > 100 µM | SR 50.9 µM | TK-10 > 100 µM | U-251 > 100 µM | UACC-62 > 100 µM

Cc1nc2c(=S)n(C)ncc2[nH]1
inactive: 786-0 > 100 µM | A549 > 100 µM | EKVX > 100 µM | HOP-62 > 100 µM | HT-29 > 100 µM | IGROV-1 > 100 µM | M14 > 100 µM | MDA-MB-435 > 100 µM | MOLT-4 > 100 µM | NCI-H23 > 100 µM | OVCAR-8 > 100 µM | SF-295 > 100 µM | SF-539 > 100 µM | SK-MEL-5 > 100 µM | SN12C > 100 µM | TK-10 > 100 µM | U-251 > 100 µM | UACC-62 > 100 µM
